C[C@H]1COc2c(N3CCN(C)CC3)c(F)c(N)c3c(=O)c(C(=O)O)cn1c23.Cl
solubility (mole fraction)
Conditions | 273.15 K | 278.15 K | 283.15 K | 288.15 K | 293.15 K | 298.15 K | 303.15 K | 308.15 K | 313.15 K | 318.15 K
in acetonitrile | 2.41e-06 | 2.73e-06 | 3.11e-06 | 3.59e-06 | 4.1e-06 | 4.68e-06 | 5.36e-06 | 6.07e-06 | 6.9e-06 | 7.84e-06
in ethanol | 9.29e-06 | 1.06e-05 | 1.22e-05 | 1.39e-05 | 1.59e-05 | 1.78e-05 | 2.02e-05 | 2.29e-05 | 2.56e-05 | 2.87e-05
in water | 0.000436 | 0.000564 | 0.000725 | 0.000971 | 0.00126 | 0.00161 | 0.00204 | 0.00253 | 0.00311 | 0.00376

Source: BigSolDB 2.1
